Assay results taken from patent EP0144441A1, “BLOOD PRESSURE-CONTROLLING AGENT” (HAYASHIBARA BIOCHEMICAL LABORATORIES, INC., priority 1983, dated 1984).
Like-named read-outs stand apart in the source and are kept apart here.

Experiments:
[1] = Acute toxicity; conditions: rat, in vivo, male Wistar rats, suspended in 5 % gum arabic, observed 7 days, method of Van der Warden
Method: Eight male Wistar rats (weighing about 150 g) per group were used. Platonin suspended in 5 % gum arabic was administered intraperitonealy, or orally using a gastric tube. […] The LD50 value was calculated by the method of Van der Warden.

[2] = test system: spontaneously hypertensive rats; assay: Effect on spontaneously hypertensive rats (blood pressure, heart rate, body weight); type: in vivo; conditions: for antihypertensive effect: separate experiment (not illustrated)
Method: Male spontaneously hypertensive rats (hereinafter referred to as SHR, weighing about 190 g) eight weeks old were used in groups of 5 animals. Platonin was orally adminstered at a dose of 1 µg/kg three times a week for 13 weeks. A physiological saline alone was adminstered to a control group in the same manner as above. During the administration period, blood pressure, heart rate and body weight were measured at timed intervals.
Blood pressure, systolic, was bloodlessly measured in the caudal artery using a rat blood pressure manometer (made by Narco Biosystems Co.), and heart rate using a polygraph (made by Nippon Kohden Kabushiki Kaisha).

[3] = test system: normal rats (Wistar-Kyoto); assay: Effect on blood pressure in normal rats (also heart rate, body weight); type: in vivo
Method: Male Wistar-Kyoto rats eight weeks old (weighing about 190 g) were used in groups of 5 animals. Platonin was orally administered at a dose of 1 µg/kg three times a week for 8 weeks. A physiological saline alone was administered to a control group in the same manner as above. During the administration period, blood pressure, heart rate and body weight were measured at timed intervals. Blood pressure, systolic, was bloodlessly measured in the caudal artery using a rat blood pressure manometer (made by Narco Biosystems Co.), and heart rate using a polygraph (made by Nippon Kohden Kabushiki Kaisha).

[4] = normal rats, in comparison with the control group

With `CCCCCCCN1C(C)=CS\C1=C/C=C(/C=C/c1scc(C)[n+]1CCCCCCC)c1scc(C)[n+]1CCCCCCC` the LD50 at 168 h ([1]; ip, intraperitoneal, read-out: intraperitoneal LD50 value) was 54 mg/kg, the LD50 at 168 h ([1]; oral by gastric tube, read-out: oral LD50 value) was 1500 mg/kg and the acute hypotensive effect ([2]; SHR, also at a higher dose, time for the antihypertensive effect to be revealed was the same) was “any acute hypotensive effect was not found”. The Body weight change ([2]; SHR, oral, 1 µg/kg three times a week, Fig. 2) was “no influence on body weight gain”, the “Effect on heart rate” value ([2]; SHR, oral, 1 µg/kg three times a week, any time point during administration, compared with control group) was “any significant change in heart rate was not observed” and the Body weight change ([2]; SHR, oral, 1 to 100 ug/kg three times a week (not illustrated)) was “no effect on body weight”. For the same compound, the antihypertensive effect ([2]; SHR, after about 4 weeks of administration) was “significant decrease in blood pressure”, the antihypertensive effect ([2]; SHR, till the 3rd week of administration) was “no effect at all” and the “Effect on blood pressure” value ([2]; male SHR, oral, 1 ug/kg three times a week for 13 weeks, systolic, caudal artery, each measurement time point after 5 weeks, Fig. 1) was “remarkable blood pressure fall”. The “Effect on blood pressure in normal rats” value ([3]; male Wistar-Kyoto rats, oral, 1 µg/kg three times a week for 8 weeks, Fig. 3) was “no influence on blood pressure”, the “Effect on blood pressure in normal rats” value ([3]; normal rats, dose range of 1 to 100 µg/kg) was “no change in blood pressure” and the body weight [3, 4] was “no significant changes”. For the same compound, the heart rate [3, 4] was “no significant changes”.
